Key:
[1] = system: Plasmodium falciparum; experiment: Hit confirmation in dose-response curve in NF54 nanoGlo assay, at 12h; format: functional, organism-based, Erythrocyte; parameters: timepoint 12 hour
[2] = system: Plasmodium falciparum; experiment: Re-testing in dose-response curve in 3D7 pLDH assay, at 72h; format: functional, organism-based; parameters: timepoint 72 hour; conditions: 3D7, Erythrocyte
[3] = system: Plasmodium falciparum; experiment: Hit confirmation in dose-response curve in Dd2 pLDH assay, at 72h; format: functional, organism-based; parameters: timepoint 72 hour; conditions: Dd2, Erythrocyte
[4] = system: Plasmodium falciparum; experiment: Hit confirmation in dose-response curve in NF54 pLDH assay, at 72h; format: functional, organism-based; parameters: timepoint 72 hour; conditions: NF54, Erythrocyte
[5] = system: Plasmodium falciparum; experiment: Hit confirmation in dose-response curve in NF54 nanoGlo assay, at 72h; format: functional, organism-based, Erythrocyte; parameters: timepoint 72 hour
[6] = Hit confirmation in dose-response curve in HepG2 cytotoxicity assay, at 72h; format: toxicity, cell-based; parameters: timepoint 72 hour; conditions: human, HepG2 cells
[7] = Re-testing in dose-response curve in HepG2 cytotoxicity assay, at 72h; format: toxicity, cell-based; parameters: timepoint 72 hour; conditions: human, HepG2 cells
[8] = Plasmodium falciparum, NF54, Erythrocyte, 12 h
[9] = Plasmodium falciparum, NF54, Erythrocyte, 72 h

Structure (SMILES) | IC50 [1, 8] [nM] | IC50 [2] [nM] | IC50 [3] [nM] | IC50 [4] [nM] | IC50 [5, 9] [nM] | IC50 at 72 h [6] [nM] | IC50 at 72 h [7] [nM] | IC50 ([1]; erythrocyte) [nM] | IC50 ([5]; erythrocyte) [nM]
COc1ccc(-c2cc(C(=O)N[C@H]3CCN(c4ccc(=O)[nH]n4)C3)c(C)n2C)cc1 | > 10000 | 289 | 871 | 2040 | 501 | > 10000 | > 25000 |  | 
Cc1c([C@@H](NCc2ncccc2O)C(C)C)oc2ccccc12 | 407 | 291 | 602 | 832 | 275 | > 10000 | > 25000 |  | 
CC(C)c1ccc(-c2nc(CN3CCCCC3)cc(CN3CCCCC3)c2O)cc1 |  | 1130 | 1230 | 2400 |  | > 10000 | > 25000 | 1170 | 813
CCN1CCN(c2cccc(NC(=O)c3cc(F)cc4c(=O)c5cc(F)ccc5[nH]c34)c2)CC1 | 1320 | 609 | 1170 | 1380 | 912 | > 10000 | 3480 |  | 
Cc1cccc(CN(Cc2cccc(C)n2)C[C@H]2CCCCO2)n1 | 2340 | 1320 | 275 | 676 | 229 | > 10000 | > 25000 |  | 
O=C(Nc1cnc2ccccc2c1)c1ccccc1C(=O)c1ccc(F)cc1 | 631 | 1390 | 955 | 2570 | 490 | > 10000 | > 25000 |  | 
CCN1CCN(c2cccc(NC(=O)c3ccc4[nH]c5ccccc5c(=O)c4c3)c2)CC1 | 4790 | ~459 | 1170 | 1700 | 955 | > 10000 | 7420 |  | 
c1cc(N2CC[C@@]3(CCCNC3)C2)c2sccc2n1 | 617 | 580 | 398 | 389 | 479 | > 10000 | > 14200 |  | 
CCn1cnc2c(N3CCC[C@H](c4ccncc4)C3)ncnc21 | 8910 | 663 | 708 | 794 | 1000 | > 10000 | > 25000 |  | 
CCCCN(CC)CCNC(=O)C1CCN(C2=NS(=O)(=O)C(c3ccc(OC)cc3)=C2C)CC1 | > 10000 | 702 | 1320 | 1200 | 3020 | > 10000 | > 25000 |  | 
COc1ccc2nc(O)c(C(=O)Nc3ccc4c(c3F)CCNC4)cc2c1 | 1450 | 845 | 1000 | 1100 | 776 | 5620 | 2270 |  | 
COc1ccc(F)cc1S(=O)(=O)N1CCc2noc(N)c2C1 | > 10000 | > 25000 | 955 | 912 | 158 | > 10000 | > 25000 |  | 
CCc1nc2c(C(=O)N3CCOc4c(C)cc(C)cc43)ccnc2[nH]1 | > 10000 | 234 | 1290 | 4270 | 1410 | > 10000 | > 25000 |  | 
O=S(=O)(Nc1ccc(O)c2cccnc12)N1CCCC1 | 10000 | 10500 | 1450 | 1320 | 2690 | > 10000 | 12500 |  | 
C[C@H]1CCN(c2nc(-c3ccccn3)nc3c2CCC3)C1 | 2040 | 2150 | 1230 | 1290 | 692 | > 10000 | 4750 |  | 
CC(C)c1cc(CN(Cc2cc(C(C)C)c(O)c(C(C)C)c2)C2CCCCC2)cc(C(C)C)c1O | 631 | 113 | 100 | 151 | 100 | > 10000 | > 8330 |  | 
COc1ccnc(CN2CCC[C@H](c3nc(-c4ccccc4)c[nH]3)C2)c1OC | 4900 | 15600 | 1700 | 1780 | 1450 | > 10000 | 10200 |  | 
CN1CC[C@]2(CCN(c3ccnc4ccsc34)C2)C1 | 912 | 461 | 407 | 380 | 550 | > 10000 | > 24800 |  | 
O=C(Nc1cc(N2CCCS2(=O)=O)ccc1O)c1cccc(Oc2cccc(C(F)(F)F)c2)c1 | 501 | 416 | 537 | 1100 | 355 | > 10000 | 20800 |  | 

Structure (SMILES) | IC50 [1, 8] [nM] | IC50 [2] [nM] | IC50 [3] [nM] | IC50 [4] [nM] | IC50 [5, 9] [nM] | IC50 at 72 h [6] [nM] | IC50 at 72 h [7] [nM] | IC50 ([1]; erythrocyte) [nM] | IC50 ([5]; erythrocyte) [nM]
Cc1ccc(NC(=O)c2c(C)nc3sc(C(=O)NCc4ccccc4)c(N)c3c2-c2ccccc2Cl)c(C)c1 | 1510 | 1080 | 1780 | 1410 | 831 | > 10000 | > 25000 |  | 
NC(=NCc1cccc2cccnc12)N1CCN(c2nccs2)CC1 | > 10000 | 709 | 501 | 447 | 1700 | > 10000 | > 25000 |  | 
N#Cc1cc(S(=O)(=O)NCCN(C2CC2)S(=O)(=O)c2ccc(Cl)c(C#N)c2)ccc1Cl | 2820 | 1100 | 2000 | 3310 | 2040 | > 10000 | 13600 |  | 
Clc1cccc(CNCCCNc2ccncc2)c1Cl | 7590 | 1150 | 1550 | 2000 | 2000 | > 10000 | 16300 |  | 
CCC1=C(c2ccc(C)cc2)S(=O)(=O)N=C1N1CCC(C(=O)NCCN2CCCC[C@@H]2C)CC1 | > 10000 | 522 | 1410 | 1350 | 2690 | > 10000 | > 25000 |  | 
COc1ccc(-c2cc(C(=O)N[C@H]3CCN(c4ccc(=O)n(C)n4)C3)c(C)n2C)cc1 | > 10000 | 347 | 794 | 3630 | 1050 | > 10000 | > 25000 |  | 
Oc1ccccc1-c1cnc(C(F)(F)F)s1 | 1320 | 5000 | 1020 | 1050 | 776 | > 10000 | 19400 |  | 
Oc1ccccc1CCN[C@H]1CCc2ccc(F)cc21 | 257 | 429 | 269 | 309 | 195 | > 10000 | > 25000 |  | 
CC(C)c1ccc2ncnc(N[C@H]3CCc4[nH]cnc4C3)c2c1 | 2400 | 534 | 589 | 1000 | 589 | > 10000 | > 25000 |  | 
CCOc1cccc(-c2ccc3nc(-c4cccc(OC)c4)c(CCC(=O)NCCN4CCCC4)n3c2)c1 | 7240 | 54.8 | 1200 | 282 | 309 | > 10000 | 15900 |  | 
CN(CCNC(=O)CCc1cn(-c2ccccc2)nc1-c1ccc2c(c1)OCO2)C1CCCCC1 | > 10000 | 545 | 1480 | 3310 | 1480 | > 10000 | ~9240 |  | 
CCOC(=O)c1c(CN2CCCC2)n(C)c2cc(-c3cccnc3)c(O)c(Cn3ccnc3)c12 | > 10000 | 3650 | 132 | 174 | 145 | > 10000 | > 25000 |  | 
CC1(C)OCc2cc(CNc3ccc4oc(=O)[nH]c4c3)ccc2O1 | 851 | 267 | 661 | 759 | 550 | > 10000 | 20400 |  | 
CN1CCCN(c2ccc(NC(=O)c3nn(-c4ccccc4)c(=O)c4ccccc34)cc2F)CC1 | 2510 | 1150 | 1910 | 2100 | 1380 | > 10000 | 7350 |  | 
Cc1nc(N)nc(C)c1C(=O)Nc1ccc(Nc2ncccn2)cc1 | > 10000 | 1460 | 1700 | 1780 | 1480 | > 10000 | > 25000 |  | 
Cc1ccc(O)c(CNCC2(c3ccccc3Cl)CCOCC2)n1 | 316 | 444 | 437 | 575 | 209 | > 10000 | > 25000 |  | 
CN(C)Cc1ccc(NC(=O)c2cc(F)cc3c(=O)c4cc(F)ccc4[nH]c23)cc1 | > 10000 | ~377 | 708 | 1200 | 525 | > 10000 | 2860 |  | 
COc1ccc(CC(=O)Nc2cc(C)n(-c3cccc(Cl)c3)n2)cc1 | 6460 | 751 | 1550 | 2820 | 1550 | > 10000 | > 25000 |  | 
O=S(=O)(NC12CCCC1CNC2)c1onc(C2CC2)c1Cl (stereo unspecified) | 1620 | 10500 | 1150 | 1480 | 891 | > 10000 | > 25000 |  | 

— ChEMBL document CHEMBL4888484, “Replenishing the malaria drug discovery pipeline: Screening and hit evaluation of the MMV Hit Generation Library 1 (HGL1) against asexual blood stage Plasmodium falciparum ,using a nano luciferase reporter read-out” (2022)
